Source: ChEMBL document CHEMBL3885881, “DrugMatrix”

Species on record: Rattus norvegicus
Test: DrugMatrix - Regimen: Daily Repeat
Assay type: toxicity, organism-based, Sprague-Dawley
Parameters: regimen Daily Repeat, gender Male, age 6-8 weeks
Details: in vivo, po, route oral GAVAGE, vehicle .5 % CMC; for ABSOLUTE BASOPHIL / ABSOLUTE EOSINOPHIL / ABSOLUTE LYMPHOCYTE / ABSOLUTE MONOCYTE / ABSOLUTE SEGMENTED NEUTROPHIL / BASOPHIL / EOSINOPHIL / ERYTHROCYTE COUNT / HEMATOCRIT / HEMOGLOBIN / LEUKOCYTE COUNT / LYMPHOCYTE / MEAN CORPUSCULAR HEMOGLOBIN / MEAN CORPUSCULAR HEMOGLOBIN CONCENTRATION / MEAN CORPUSCULAR VOLUME / MONOCYTE / NEUTROPHIL / NUCLEATED RED BLOOD CELLS / PLATELET COUNT: tissue Blood; for ALANINE AMINOTRANSFERASE / ALBUMIN / ALKALINE PHOSPHATASE / ASPARTATE AMINOTRANSFERASE / BLOOD UREA NITROGEN / CARBON DIOXIDE / CHLORIDE / CHOLESTEROL / CREATINE PHOSPHOKINASE / CREATININE / GLUCOSE / LACTATE DEHYDROGENASE / LIPASE / PHOSPHORUS / POTASSIUM / SODIUM / TOTAL BILIRUBIN / TOTAL PROTEIN / URIC ACID: tissue Plasma
[1] = 1 mg/kg, 72 h, dose level Low, time 3 day
[2] = 1 mg/kg, 120 h, dose level Low, time 5 day
[3] = 1500 mg/kg, 72 h, dose level High, time 3 day
[4] = 1500 mg/kg, 120 h, dose level High, time 5 day

SMILES: CCOC(=O)[C@H](CCc1ccccc1)N[C@@H](C)C(=O)N1[C@H](C(=O)O)C[C@@H]2CCC[C@@H]21
- ABSOLUTE BASOPHIL [1]: 0 CELLS/uL
- ABSOLUTE EOSINOPHIL [1]: 0 CELLS/uL
- ABSOLUTE LYMPHOCYTE [1]: 13012 CELLS/uL
- ABSOLUTE MONOCYTE [1]: 125.67 CELLS/uL
- ABSOLUTE SEGMENTED NEUTROPHIL [1]: 829 CELLS/uL
- BASOPHIL [1]: 0%
- EOSINOPHIL [1]: 0%
- ERYTHROCYTE COUNT [1]: 5.51 x10E6/uL
- HEMATOCRIT [1]: 35.1%
- HEMOGLOBIN [1]: 14.07 G/DL
- LEUKOCYTE COUNT [1]: 13.97 x10E3/uL
- LYMPHOCYTE [1]: 92.67%
- MEAN CORPUSCULAR HEMOGLOBIN [1]: 25.53 pg
- MEAN CORPUSCULAR HEMOGLOBIN CONCENTRATION [1]: 40.07 G/DL
- MEAN CORPUSCULAR VOLUME [1]: 63.73 fL
- MONOCYTE [1]: 1%
- NEUTROPHIL [1]: 6.33%
- NUCLEATED RED BLOOD CELLS [1]: 0 /100WBC
- PLATELET COUNT [1]: 1322.67 x10E3/uL
- ALANINE AMINOTRANSFERASE [1]: 44.33 u/L
- ALBUMIN [1]: 4.53 G/DL
- ALKALINE PHOSPHATASE [1]: 320.33 u/L
- ASPARTATE AMINOTRANSFERASE [1]: 82 u/L
- BLOOD UREA NITROGEN [1]: 17 mg/dL
- CARBON DIOXIDE [1]: 28 mmol/L
- CHLORIDE [1]: 100.33 MEQ/L
- CHOLESTEROL [1]: 74.33 mg/dL
- CREATINE PHOSPHOKINASE [1]: 223 u/L
- CREATININE [1]: 0.15 mg/dL
- GLUCOSE [1]: 156.33 mg/dL
- LACTATE DEHYDROGENASE [1]: 243 u/L
- LIPASE [1]: 9.33 u/L
- PHOSPHORUS [1]: 13.7 mg/dL
- POTASSIUM [1]: 7.23 MEQ/L
- SODIUM [1]: 146.6 MEQ/L
- TOTAL BILIRUBIN [1]: 0.27 mg/dL
- TOTAL PROTEIN [1]: 6.27 G/DL
- URIC ACID [1]: 1.87 mg/dL
- ABSOLUTE BASOPHIL [2]: 0 CELLS/uL
- ABSOLUTE EOSINOPHIL [2]: 73 CELLS/uL
- ABSOLUTE LYMPHOCYTE [2]: 14658 CELLS/uL
- ABSOLUTE MONOCYTE [2]: 332.67 CELLS/uL
- ABSOLUTE SEGMENTED NEUTROPHIL [2]: 1636.33 CELLS/uL
- BASOPHIL [2]: 0%
- EOSINOPHIL [2]: 0.33%
- ERYTHROCYTE COUNT [2]: 5.38 x10E6/uL
- HEMATOCRIT [2]: 35.13%
- HEMOGLOBIN [2]: 13.27 G/DL
- LEUKOCYTE COUNT [2]: 16.7 x10E3/uL
- LYMPHOCYTE [2]: 88.33%
- MEAN CORPUSCULAR HEMOGLOBIN [2]: 24.7 pg
- MEAN CORPUSCULAR HEMOGLOBIN CONCENTRATION [2]: 37.8 G/DL
- MEAN CORPUSCULAR VOLUME [2]: 65.37 fL
- MONOCYTE [2]: 1.67%
- NEUTROPHIL [2]: 9.67%
- NUCLEATED RED BLOOD CELLS [2]: 0 /100WBC
- PLATELET COUNT [2]: 1368.33 x10E3/uL
- ALANINE AMINOTRANSFERASE [2]: 58.33 u/L
- ALBUMIN [2]: 4.37 G/DL
- ALKALINE PHOSPHATASE [2]: 395 u/L
- ASPARTATE AMINOTRANSFERASE [2]: 74.67 u/L
- BLOOD UREA NITROGEN [2]: 20 mg/dL
- CARBON DIOXIDE [2]: 28.67 mmol/L
- CHLORIDE [2]: 101.67 MEQ/L
- CHOLESTEROL [2]: 69.67 mg/dL
- CREATINE PHOSPHOKINASE [2]: 158.67 u/L
- CREATININE [2]: 0.2 mg/dL
- GLUCOSE [2]: 153.67 mg/dL
- LACTATE DEHYDROGENASE [2]: 81.67 u/L
- LIPASE [2]: 8.33 u/L
- PHOSPHORUS [2]: 12.57 mg/dL
- POTASSIUM [2]: 6.7 MEQ/L
- SODIUM [2]: 146.17 MEQ/L
- TOTAL BILIRUBIN [2]: 0.2 mg/dL
- TOTAL PROTEIN [2]: 6.03 G/DL
- URIC ACID [2]: 1.43 mg/dL
- ABSOLUTE BASOPHIL [3]: 0 CELLS/uL
- ABSOLUTE EOSINOPHIL [3]: 134.33 CELLS/uL
- ABSOLUTE LYMPHOCYTE [3]: 16266.67 CELLS/uL
- ABSOLUTE MONOCYTE [3]: 0 CELLS/uL
- ABSOLUTE SEGMENTED NEUTROPHIL [3]: 1032.33 CELLS/uL
- BASOPHIL [3]: 0%
- EOSINOPHIL [3]: 0.67%
- ERYTHROCYTE COUNT [3]: 5.12 x10E6/uL
- HEMATOCRIT [3]: 34.53%
- HEMOGLOBIN [3]: 13.77 G/DL
- LEUKOCYTE COUNT [3]: 17.43 x10E3/uL
- LYMPHOCYTE [3]: 93%
- MEAN CORPUSCULAR HEMOGLOBIN [3]: 26.9 pg
- MEAN CORPUSCULAR HEMOGLOBIN CONCENTRATION [3]: 39.93 G/DL
- MEAN CORPUSCULAR VOLUME [3]: 67.37 fL
- MONOCYTE [3]: 0%
- NEUTROPHIL [3]: 6.33%
- NUCLEATED RED BLOOD CELLS [3]: 0.33 /100WBC
- PLATELET COUNT [3]: 1317.67 x10E3/uL
- ALANINE AMINOTRANSFERASE [3]: 41.33 u/L
- ALBUMIN [3]: 4.1 G/DL
- ALKALINE PHOSPHATASE [3]: 454.33 u/L
- ASPARTATE AMINOTRANSFERASE [3]: 81.67 u/L
- BLOOD UREA NITROGEN [3]: 30.67 mg/dL
- CARBON DIOXIDE [3]: 21.67 mmol/L
- CHLORIDE [3]: 104.67 MEQ/L
- CHOLESTEROL [3]: 56.67 mg/dL
- CREATINE PHOSPHOKINASE [3]: 460 u/L
- CREATININE [3]: 0.26 mg/dL
- GLUCOSE [3]: 192.67 mg/dL
- LACTATE DEHYDROGENASE [3]: 379.67 u/L
- LIPASE [3]: 8 u/L
- PHOSPHORUS [3]: 12.53 mg/dL
- POTASSIUM [3]: 7.28 MEQ/L
- SODIUM [3]: 143.5 MEQ/L
- TOTAL BILIRUBIN [3]: 0.17 mg/dL
- TOTAL PROTEIN [3]: 5.9 G/DL
- URIC ACID [3]: 1.93 mg/dL
- ABSOLUTE BASOPHIL [4]: 0 CELLS/uL
- ABSOLUTE EOSINOPHIL [4]: 56.33 CELLS/uL
- ABSOLUTE LYMPHOCYTE [4]: 15250 CELLS/uL
- ABSOLUTE MONOCYTE [4]: 259.67 CELLS/uL
- ABSOLUTE SEGMENTED NEUTROPHIL [4]: 1034 CELLS/uL
- BASOPHIL [4]: 0%
- EOSINOPHIL [4]: 0.33%
- ERYTHROCYTE COUNT [4]: 5.8 x10E6/uL
- HEMATOCRIT [4]: 35.77%
- HEMOGLOBIN [4]: 14.07 G/DL
- LEUKOCYTE COUNT [4]: 16.6 x10E3/uL
- LYMPHOCYTE [4]: 92%
- MEAN CORPUSCULAR HEMOGLOBIN [4]: 24.3 pg
- MEAN CORPUSCULAR HEMOGLOBIN CONCENTRATION [4]: 39.37 G/DL
- MEAN CORPUSCULAR VOLUME [4]: 61.63 fL
- MONOCYTE [4]: 1.67%
- NEUTROPHIL [4]: 6%
- NUCLEATED RED BLOOD CELLS [4]: 0 /100WBC
- PLATELET COUNT [4]: 1413.67 x10E3/uL
- ALANINE AMINOTRANSFERASE [4]: 55.33 u/L
- ALBUMIN [4]: 4.33 G/DL
- ALKALINE PHOSPHATASE [4]: 583.33 u/L
- ASPARTATE AMINOTRANSFERASE [4]: 89.33 u/L
- BLOOD UREA NITROGEN [4]: 31.33 mg/dL
- CARBON DIOXIDE [4]: 29 mmol/L
- CHLORIDE [4]: 102 MEQ/L
- CHOLESTEROL [4]: 35 mg/dL
- CREATINE PHOSPHOKINASE [4]: 314.67 u/L
- CREATININE [4]: 0.26 mg/dL
- GLUCOSE [4]: 150.33 mg/dL
- LACTATE DEHYDROGENASE [4]: 374.33 u/L
- LIPASE [4]: 8.67 u/L
- PHOSPHORUS [4]: 11.03 mg/dL
- POTASSIUM [4]: 7.1 MEQ/L
- SODIUM [4]: 143.93 MEQ/L
- TOTAL BILIRUBIN [4]: 0.27 mg/dL
- TOTAL PROTEIN [4]: 6.3 G/DL
- URIC ACID [4]: 1.6 mg/dL
